These results are taken from patent US9802921B2, “Fluoromethyl-substituted pyrrole carboxamides iv” (Grünenthal GmbH, priority 2013, dated 2017).

Bounds are passed on as bounds.

T1 sequence (Q00975 whole entry): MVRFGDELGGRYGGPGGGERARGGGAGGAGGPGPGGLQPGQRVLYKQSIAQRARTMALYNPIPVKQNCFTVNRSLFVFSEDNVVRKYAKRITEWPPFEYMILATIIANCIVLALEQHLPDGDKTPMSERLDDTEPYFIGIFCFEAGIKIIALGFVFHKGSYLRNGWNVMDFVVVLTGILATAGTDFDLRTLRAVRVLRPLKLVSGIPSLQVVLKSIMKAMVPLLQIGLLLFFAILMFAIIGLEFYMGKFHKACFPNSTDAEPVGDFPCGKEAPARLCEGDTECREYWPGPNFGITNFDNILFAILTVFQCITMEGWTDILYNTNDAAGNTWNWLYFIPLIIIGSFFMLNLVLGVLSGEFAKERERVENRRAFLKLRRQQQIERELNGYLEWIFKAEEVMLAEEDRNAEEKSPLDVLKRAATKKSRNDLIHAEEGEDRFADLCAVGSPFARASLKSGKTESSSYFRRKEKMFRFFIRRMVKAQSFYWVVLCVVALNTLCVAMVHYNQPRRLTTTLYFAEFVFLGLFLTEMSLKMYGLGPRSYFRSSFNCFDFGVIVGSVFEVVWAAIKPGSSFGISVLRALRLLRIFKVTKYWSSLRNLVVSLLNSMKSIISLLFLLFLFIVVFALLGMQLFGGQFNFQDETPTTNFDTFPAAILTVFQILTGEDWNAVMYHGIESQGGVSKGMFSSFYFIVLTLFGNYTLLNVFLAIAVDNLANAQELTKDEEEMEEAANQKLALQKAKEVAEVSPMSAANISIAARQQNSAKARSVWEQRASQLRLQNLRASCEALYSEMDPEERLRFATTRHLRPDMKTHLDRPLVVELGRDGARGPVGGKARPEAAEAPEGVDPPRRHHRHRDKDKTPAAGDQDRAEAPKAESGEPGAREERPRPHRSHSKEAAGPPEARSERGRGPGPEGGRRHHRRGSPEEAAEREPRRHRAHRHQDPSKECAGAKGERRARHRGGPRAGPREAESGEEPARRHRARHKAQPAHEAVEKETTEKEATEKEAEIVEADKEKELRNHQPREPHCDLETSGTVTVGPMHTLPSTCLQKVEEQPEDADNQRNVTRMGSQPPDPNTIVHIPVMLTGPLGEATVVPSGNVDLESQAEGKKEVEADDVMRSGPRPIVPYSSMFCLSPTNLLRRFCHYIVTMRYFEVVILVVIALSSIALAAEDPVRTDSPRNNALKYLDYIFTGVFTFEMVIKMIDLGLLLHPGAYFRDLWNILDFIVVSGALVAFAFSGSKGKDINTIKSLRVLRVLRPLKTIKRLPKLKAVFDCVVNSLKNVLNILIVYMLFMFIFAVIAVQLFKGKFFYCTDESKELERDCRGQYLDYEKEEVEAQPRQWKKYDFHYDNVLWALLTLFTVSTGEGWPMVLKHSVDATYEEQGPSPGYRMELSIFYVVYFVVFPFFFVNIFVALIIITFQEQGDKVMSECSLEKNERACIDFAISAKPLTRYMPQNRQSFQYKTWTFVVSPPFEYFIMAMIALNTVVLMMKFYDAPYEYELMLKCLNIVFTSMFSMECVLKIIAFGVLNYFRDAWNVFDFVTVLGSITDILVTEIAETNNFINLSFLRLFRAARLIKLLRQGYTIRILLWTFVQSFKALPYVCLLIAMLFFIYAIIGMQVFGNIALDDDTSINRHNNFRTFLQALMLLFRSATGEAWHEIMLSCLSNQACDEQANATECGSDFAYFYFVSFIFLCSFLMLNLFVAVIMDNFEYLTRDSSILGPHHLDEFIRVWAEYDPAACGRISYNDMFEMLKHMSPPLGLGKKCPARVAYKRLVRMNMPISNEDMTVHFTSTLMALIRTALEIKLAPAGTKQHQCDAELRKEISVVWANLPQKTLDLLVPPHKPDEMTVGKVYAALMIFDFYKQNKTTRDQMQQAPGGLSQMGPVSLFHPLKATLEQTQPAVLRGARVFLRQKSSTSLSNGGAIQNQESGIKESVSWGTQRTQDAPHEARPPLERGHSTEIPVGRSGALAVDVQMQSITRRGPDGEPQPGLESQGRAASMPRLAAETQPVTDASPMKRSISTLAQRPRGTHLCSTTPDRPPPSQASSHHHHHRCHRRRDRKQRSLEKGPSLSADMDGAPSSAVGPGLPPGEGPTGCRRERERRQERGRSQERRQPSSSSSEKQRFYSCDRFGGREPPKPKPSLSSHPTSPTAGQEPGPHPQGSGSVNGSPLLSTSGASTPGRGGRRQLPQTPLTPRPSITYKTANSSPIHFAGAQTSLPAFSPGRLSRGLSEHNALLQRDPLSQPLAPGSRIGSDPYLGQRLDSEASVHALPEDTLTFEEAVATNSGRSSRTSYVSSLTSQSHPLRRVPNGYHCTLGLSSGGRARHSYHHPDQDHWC
T1 sequence (P54289 25-1103, further chain): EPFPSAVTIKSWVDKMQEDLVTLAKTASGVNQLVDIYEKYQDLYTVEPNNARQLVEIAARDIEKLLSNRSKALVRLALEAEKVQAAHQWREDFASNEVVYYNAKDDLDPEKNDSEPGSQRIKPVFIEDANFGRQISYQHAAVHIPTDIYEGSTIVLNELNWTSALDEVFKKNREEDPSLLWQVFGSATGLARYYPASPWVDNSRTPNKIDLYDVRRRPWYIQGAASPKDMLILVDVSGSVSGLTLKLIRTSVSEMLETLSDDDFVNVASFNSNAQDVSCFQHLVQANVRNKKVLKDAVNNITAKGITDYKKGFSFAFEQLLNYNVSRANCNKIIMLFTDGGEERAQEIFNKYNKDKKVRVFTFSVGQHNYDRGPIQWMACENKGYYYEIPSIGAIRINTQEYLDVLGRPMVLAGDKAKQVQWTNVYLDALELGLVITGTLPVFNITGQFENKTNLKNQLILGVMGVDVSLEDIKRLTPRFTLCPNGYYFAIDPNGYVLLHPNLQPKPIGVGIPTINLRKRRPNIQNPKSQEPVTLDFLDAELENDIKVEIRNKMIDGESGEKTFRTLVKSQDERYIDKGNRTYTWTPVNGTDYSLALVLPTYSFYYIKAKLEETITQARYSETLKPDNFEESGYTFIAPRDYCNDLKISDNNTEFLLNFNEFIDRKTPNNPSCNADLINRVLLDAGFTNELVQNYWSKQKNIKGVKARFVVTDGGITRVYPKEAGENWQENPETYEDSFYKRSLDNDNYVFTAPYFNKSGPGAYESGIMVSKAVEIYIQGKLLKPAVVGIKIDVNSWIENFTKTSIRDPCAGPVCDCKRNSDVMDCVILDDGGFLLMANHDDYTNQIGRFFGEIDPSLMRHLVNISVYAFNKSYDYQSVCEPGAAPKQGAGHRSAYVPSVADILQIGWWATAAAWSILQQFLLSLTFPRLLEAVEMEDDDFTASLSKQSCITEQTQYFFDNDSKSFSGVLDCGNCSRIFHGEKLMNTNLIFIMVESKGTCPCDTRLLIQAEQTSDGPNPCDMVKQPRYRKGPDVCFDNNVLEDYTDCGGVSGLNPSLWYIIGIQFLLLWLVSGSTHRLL
T1 sequence (P54284 whole entry, further chain): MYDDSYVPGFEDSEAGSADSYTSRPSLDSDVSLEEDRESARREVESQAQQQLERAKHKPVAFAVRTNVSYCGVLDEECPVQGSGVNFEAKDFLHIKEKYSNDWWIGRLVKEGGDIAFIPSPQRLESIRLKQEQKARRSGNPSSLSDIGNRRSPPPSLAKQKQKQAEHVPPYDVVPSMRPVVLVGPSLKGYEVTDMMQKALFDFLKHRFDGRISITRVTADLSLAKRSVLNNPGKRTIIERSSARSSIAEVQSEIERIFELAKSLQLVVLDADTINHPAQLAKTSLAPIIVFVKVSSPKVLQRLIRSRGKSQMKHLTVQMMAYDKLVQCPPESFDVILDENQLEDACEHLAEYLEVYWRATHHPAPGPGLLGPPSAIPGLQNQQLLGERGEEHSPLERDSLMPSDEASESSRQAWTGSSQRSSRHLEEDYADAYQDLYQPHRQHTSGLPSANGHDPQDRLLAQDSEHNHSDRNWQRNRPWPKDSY

This assay concerns the target T1, Human CaV2.2 channels (Homo sapiens, UniProt Q00975).
T1 construct: expressed in transfected cells
The assay is described as follows: Fluorescent assay for CaV2.2 channels using potassium depolarization to induce channel opening (FLIPR, Fluo 4). Format: cell-based. Conditions: read-out: Activity Category: %-Inhib (CaV2.2) @3 μM @30 mM KCl; 3 μM test compound; 30 mM KCl as printed; HEK293 cells stably expressing human CaV2.2. From the text: In the process, the Ca^2+ influx is quantified in the FLIPR assay with the aid of a Ca^2+-sensitive dye (type Fluo-4, Molecular Probes Europe BV, Leiden, the Netherlands) in a fluorescent imaging plate reader (FLIPR 3, Molecular Devices, Sunnyvale, USA), as described hereinafter.
Human CaV2.2 channels were stably expressed in HEK293 cells together with alpha2-delta and beta subunits of voltage gated calcium channels. In addition, an inwardly rectifying potassium channel (Kir2.3) was stably expressed in these cells to augment control of the cell membrane potential by the concentration of extracellular potassium ions. Raise of the extracellular potassium concentration leads to depolarization of the membrane potential and thus regulates the voltage dependent state of CaV2.2 channels. For preparation, cells were seeded in black poly-D-lysine coated 96-well plates (Becton Dickinson, Biocoat 4640) in 100 μL medium [500 mL DMEM/F-12 plus Glutamax (Invitrogen 31331-093) plus 5.5 mL MEM NEAA 100× (Invitrogen 11140-035) plus 50 mL FBS decomplemented (Invitrogen 10270-106) plus 200 μg/mL Geneticin (Invitrogen 10131-027) plus 50 μg/mL Hygromycin B (Invitrogen 10687-010) plus 2 μg/mL Blasticidin (anti-bl5b Invivo-Gen) plus 0.2 μg/mL Puromycin (A 11138-03)] at a cell density of 30.000 cells per well. Plates were incubated at 37° C. (5% CO2) for 20 to 23 h. On the day of experiment medium was discarded and cells were loaded with Fluo 4 by addition of 100 μL of basic assay buffer (10 mM HEPES, 1 mM KCl, 149 mM NaCl, 0.8 mM CaCl2, 1.7 mM MgCl2, 10 mM Glucose, 0.1% BSA. pH 7.4) containing 2 μM Fluo 4 (Molecular Probes; F-14201), 0.01% pluronic acid (Molecular Probes; P-6866) and 2.5 mM probenecid (Molecular Probes; P36400). Cells were incubated in the dark at 25° C. for 60 min. Then dye containing buffer was discarded and 100 μL basic (1 mM KCl) or alternative (30 mM KCl) assay buffer was added. The alternative assay buffer contained altered concentrations of KCl (30 mM) and NaCl (120 mM) and was used in order to promote the inactivated channel state. After that 25 μL of basic or alternative assay buffer with or without test compound were added and cells were incubated again in the dark at 25° C. for 15 min. Fluorescence intensity was measured on a FLIPR 3 instrument (Molecular Devices Corp., Sunnyvale, Calif.) with excitation at 480 nm and emission at 535 nm. After continuously reading fluorescence for 30 sec, 50 μL of basic assay buffer containing 210 mM KCl (NaCl omitted) were added for depolarization. Peak fluorescent signal intensity was determined and the amplitude of the peak signal, normalized to base line, was used to measure channel inhibition by test compounds.
As for `CCc1cc(Cn2c(C(=O)N(C)CCS(C)(=O)=O)c(-c3ccc(Cl)cc3)c(C)c2C(F)(F)F)on1` [Example 001, 3-(4-Chlorophenyl)-1-[(3-ethyl-isoxazol-5-yl)-methyl]-N,4-dimethyl-N-(2-methylsulfonyl-ethyl)-5-(trifluoromethyl)-1H-pyrrole-2-carboxylic acid amide], the inhibition at 3 µM was over 95%. For `Cc1c(-c2ccc(Cl)cc2)c(C(=O)N(C)CCS(C)(=O)=O)n(Cc2nccn2C)c1C(F)(F)F` [Example 002, 3-(4-Chlorophenyl)-N,4-dimethyl-1-[(1-methyl-1H-imidazole-2-yl)-methyl]-N-(2-methylsulfonyl-ethyl)-5-(trifluoromethyl)-1H-pyrrole-2-carboxylic acid amide] the value was 40 to 75%. For `Cc1c(-c2ccc(Cl)cc2)c(C(=O)N(C)CCS(C)(=O)=O)n(Cc2cncn2C)c1C(F)(F)F` [Example 003, 3-(4-Chlorophenyl)-N,4-dimethyl-1-[(3-methyl-3H-imidazole-4-yl)-methyl]-N-(2-methylsulfonyl-ethyl)-5-(trifluoromethyl)-1H-pyrrole-2-carboxylic acid amide] the value was 40 to 75%; for `CN(CC(C)(C)C)C(=O)c1c(-c2ccc(Cl)cc2)cc(C(F)(F)F)n1Cc1ccnn1C` [Example 008, 3-(4-Chlorophenyl)-N-(2,2-dimethyl-propyl)-N-methyl-1-[(2-methyl-2H-pyrazol-3-yl)-methyl]-5-(trifluoromethyl)-1H-pyrrole-2-carboxylic acid amide], 75 to 95%; for `CN(CC(C)(C)C)C(=O)c1c(-c2ccc(Cl)cc2)cc(C(F)(F)F)n1Cc1cn(C)nn1` [Example 009, 3-(4-Chlorophenyl)-N-(2,2-dimethyl-propyl)-N-methyl-1-[(1-methyl-1H-[1,2,3]triazol-4-yl)-methyl]-5-(trifluoromethyl)-1H-pyrrole-2-carboxylic acid amide], 75 to 95%. For `CN(CC(C)(C)C)C(=O)c1c(-c2ccc(Cl)cc2)cc(C(F)(F)F)n1Cc1nc(C(F)(F)F)no1` [Example 010, 3-(4-Chlorophenyl)-N-(2,2-dimethyl-propyl)-N-methyl-5-(trifluoromethyl)-1-[[3-(trifluoromethyl)-[1,2,4]oxadiazol-5-yl]-methyl]-1H-pyrrole-2-carboxylic acid amide] the value was 75 to 95%. For `Cc1noc(Cn2c(C(F)(F)F)cc(-c3ccc(Cl)cc3)c2C(=O)N(C)CC(C)(C)C)n1` [Example 011, 3-(4-Chlorophenyl)-N-(2,2-dimethyl-propyl)-N-methyl-1-[(3-methyl-[1,2,4]oxadiazol-5-yl)-methyl]-5-(trifluoromethyl)-1H-pyrrole-2-carboxylic acid amide], the inhibition at 3 µM is over 95%. For `Cc1nc(Cn2c(C(F)(F)F)cc(-c3ccc(Cl)cc3)c2C(=O)N(C)CC(C)(C)C)no1` [Example 012, 3-(4-Chlorophenyl)-N-(2,2-dimethyl-propyl)-N-methyl-1-[(5-methyl-[1,2,4]oxadiazol-3-yl)-methyl]-5-(trifluoromethyl)-1H-pyrrole-2-carboxylic acid amide], the inhibition at 3 µM was over 95%. For `CN(CC(C)(C)C)C(=O)c1c(-c2ccc(Cl)cc2)cc(C(F)(F)F)n1Cc1ncn(C)n1` [Example 013, 3-(4-Chlorophenyl)-N-(2,2-dimethyl-propyl)-N-methyl-1-[(1-methyl-1H-[1,2,4]triazol-3-yl)-methyl]-5-(trifluoromethyl)-1H-pyrrole-2-carboxylic acid amide] the value was 75 to 95%; for `Cc1nnc(Cn2c(C(F)(F)F)cc(-c3ccc(Cl)cc3)c2C(=O)N(C)CC(C)(C)C)o1` [Example 014, 3-(4-Chlorophenyl)-N-(2,2-dimethyl-propyl)-N-methyl-1-[(5-methyl-[1,3,4]oxadiazol-2-yl)-methyl]-5-(trifluoromethyl)-1H-pyrrole-2-carboxylic acid amide], 75 to 95%; for `Cc1noc(Cn2c(C(=O)N(C)CCS(C)(=O)=O)c(-c3ccc(Cl)cc3)c(C)c2C(F)(F)F)n1` [Example 015, 3-(4-Chlorophenyl)-N,4-dimethyl-1-[(3-methyl-[1,2,4]oxadiazol-5-yl)-methyl]-N-(2-methylsulfonyl-ethyl)-5-(trifluoromethyl)-1H-pyrrole-2-carboxylic acid amide], 75 to 95%. Next, `Cc1c(-c2ccc(Cl)cc2)c(C(=O)N2CCOCC2)n(Cc2ccnn2C)c1C(F)(F)F` [Example 016, [3-(4-Chlorophenyl)-4-methyl-1-[(2-methyl-2H-pyrazol-3-yl)-methyl]-5-(trifluoromethyl)-1H-pyrrol-2-yl]-morpholin-4-yl-methanone]: 75 to 95%; `Cc1c(-c2ccc(Cl)cc2)c(C(=O)N2CCOCC2)n(Cc2cn(C)nn2)c1C(F)(F)F` [Example 017, [3-(4-Chlorophenyl)-4-methyl-1-[(1-methyl-1H-[1,2,3]triazol-4-yl)-methyl]-5-(trifluoromethyl)-1H-pyrrol-2-yl]-morpholin-4-yl-methanone]: 40 to 75%; `Cc1noc(Cn2c(C(=O)N3CCOCC3)c(-c3ccc(Cl)cc3)c(C)c2C(F)(F)F)n1` [Example 018, [3-(4-Chlorophenyl)-4-methyl-1-[(3-methyl-[1,2,4]oxadiazol-5-yl)-methyl]-5-(trifluoromethyl)-1H-pyrrol-2-yl]-morpholin-4-yl-methanone]: over 95%. Next, `Cc1c(-c2ccc(Cl)cc2)c(C(=O)N2CCOCC2)n(Cc2ncn(C)n2)c1C(F)(F)F` [Example 019, [3-(4-Chlorophenyl)-4-methyl-1-[(1-methyl-1H-[1,2,4]triazol-3-yl)-methyl]-5-(trifluoromethyl)-1H-pyrrol-2-yl]-morpholin-4-yl-methanone]: 75 to 95%. Consider `Cc1c(-c2ccc(Cl)cc2)c(C(=O)N2CCS(=O)(=O)CC2)n(Cc2cn(C)cn2)c1C(F)(F)F` [Example 022, [3-(4-Chlorophenyl)-4-methyl-1-[(1-methyl-1H-imidazol-4-yl)-methyl]-5-(trifluoromethyl)-1H-pyrrol-2-yl]-(1,1-dioxo-[1,4]thiazinan-4-yl)-methanone], for which the inhibition at 3 µM lay in the range of 40 to 75%. Next, `Cc1c(-c2ccc(Cl)cc2)c(C(=O)N2CCOCC2)n(Cc2cnn(C)c2)c1C(F)(F)F` [Example 023, [3-(4-Chlorophenyl)-4-methyl-1-[(1-methyl-1H-pyrazol-4-yl)-methyl]-5-(trifluoromethyl)-1H-pyrrol-2-yl]-morpholin-4-yl-methanone]: over 95%.

As to `Cc1c(-c2ccc(Cl)cc2)c(C(=O)N2CCOCC2)n(Cc2nncs2)c1C(F)(F)F` [Example 024, [3-(4-Chlorophenyl)-4-methyl-1-([1,3,4]thiadiazol-2-yl-methyl)-5-(trifluoromethyl)-1H-pyrrol-2-yl]-morpholin-4-yl-methanone], the inhibition at 3 µM fell in the range of 40 to 75%. Regarding `CN(CC(C)(C)C)C(=O)c1c(-c2ccc(Cl)cc2)cc(C(F)(F)F)n1Cc1nccn1C` [Example 025, 3-(4-Chlorophenyl)-N-(2,2-dimethyl-propyl)-N-methyl-1-[(1-methyl-1H-imidazole-2-yl)-methyl]-5-(trifluoromethyl)-1H-pyrrole-2-carboxylic acid amide], the inhibition at 3 µM was 75 to 95%. For `CN(CC(C)(C)C)C(=O)c1c(-c2ccc(Cl)cc2)cc(C(F)(F)F)n1Cc1cncn1C` [Example 026, 3-(4-Chlorophenyl)-N-(2,2-dimethyl-propyl)-N-methyl-1-[(3-methyl-3H-imidazole-4-yl)-methyl]-5-(trifluoromethyl)-1H-pyrrole-2-carboxylic acid amide] the value was 75 to 95%; for `CN(CC(C)(C)C)C(=O)c1c(-c2ccc(Cl)cc2)cc(C(F)(F)F)n1Cc1nncn1C` [Example 027, 3-(4-Chlorophenyl)-N-(2,2-dimethyl-propyl)-N-methyl-1-[(4-methyl-4H-[1,2,4]triazol-3-yl)-methyl]-5-(trifluoromethyl)-1H-pyrrole-2-carboxylic acid amide], 40 to 75%.
